Data reported in patent US20080015240A1, “Acid Salt of Benzimidazole Derivative and Crystal Thereof” (priority 2004, published 2008).
Converted amounts (≈) assume the structure as drawn. Structures can show the parent of a compound that is named as a salt.

Key:
[1] = solubility according to the General Rules of the Japanese Pharmacopoeia 14th Edition; assay type: physicochemical; details: for solubility in Solution 1: Solution 1 of the Japanese Pharmacopoeia; for solubility in Solution 1 / solubility in Solution 2: 20±5° C. within 30 minutes; for solubility in Solution 2: Solution 2 of the Japanese Pharmacopoeia; for solubility in Water: powder shaken 30 seconds every 5 minutes at 20±5° C. within 30 minutes
Description: […]. In accordance with the General Rules of the Japanese Pharmacopoeia 14th Edition, solubility (μg/mL) herein refers to an amount of a substance dissolved in a solvent after the substance in powder is placed in the solvent and the sample is shaken strongly for 30 seconds every 5 minutes at 20±5° C. within 30 minutes.

[2] = order in stability among crystal forms by solvent-mediated transformation of a mixture of crystals; assay type: physicochemical; details: order may change depending on the solvent and temperature
Description: The order in stability among the crystal forms of each acid salt can be examined by solvent-mediated transformation of a mixture of crystals, but the order may change depending on the solvent and temperature. […]. […] […].

Row | solubility in Solution 1 ([1]; sulfate) | solubility in Solution 2 ([1]; sulfate) | solubility in Water ([1]; sulfate) | relative stability of crystal form ([2]; sulfate) | Structure (SMILES) | further results
1 | 7.6 µg/mL | 74.0 µg/mL | 0.1 µg/mL | close to that of crystal-SA | Cc1cccc2scc(Cn3c(SCCCC(=O)O)nc4ccccc43)c12 [Crystal-SF, 4-(1-((4-methylbenzothiophen-3-yl)methyl)benzimidazol-2-ylthio)butanoic acid sulfate] | 
2 | 19.8 µg/mL | 24.2 µg/mL | 0.8 µg/mL |  | Cc1cccc2scc(Cn3c(SCCCC(=O)O)nc4ccccc43)c12 [Crystal-SB, 4-(1-((4-methylbenzothiophen-3-yl)methyl)benzimidazol-2-ylthio)butanoic acid sulfate] | 
3 |  |  |  | less stable than crystal-SF | Cc1cccc2scc(Cn3c(SCCCC(=O)O)nc4ccccc43)c12 [Crystal-SG, 4-(1-((4-methylbenzothiophen-3-yl)methyl)benzimidazol-2-ylthio)butanoic acid sulfate] | 

Continued, compound first:

Row | Structure (SMILES) | solubility in Solution 1 ([1]; sulfate) | solubility in Solution 2 ([1]; sulfate) | solubility in Water ([1]; sulfate) | relative stability of crystal form ([2]; sulfate) | further results
4 | Cc1cccc2scc(Cn3c(SCCCC(=O)O)nc4ccccc43)c12.Cl [Crystal-HB, 4-(1-((4-methylbenzothiophen-3-yl)methyl)benzimidazol-2-ylthio)butanoic acid hydrochloride] |  |  |  |  | relative stability of crystal form [2]: more stable than the other crystal forms
5 | Cc1cccc2scc(Cn3c(SCCCC(=O)O)nc4ccccc43)c12 [Crystal-SC, 4-(1-((4-methylbenzothiophen-3-yl)methyl)benzimidazol-2-ylthio)butanoic acid sulfate] | 10.6 µg/mL | 72.4 µg/mL | 0.1 µg/mL | more stable than the other four crystal forms | 
6 | Cc1cccc2scc(Cn3c(SCCCC(=O)O)nc4ccccc43)c12 [Crystal-SA, 4-(1-((4-methylbenzothiophen-3-yl)methyl)benzimidazol-2-ylthio)butanoic acid sulfate] | 8.6 µg/mL | 67.3 µg/mL |  |  | 
7 | Cc1cccc2scc(Cn3c(SCCCC(=O)O)nc4ccccc43)c12 [Crystal A, 4-(1-((4-methylbenzothiophen-3-yl)methyl)benzimidazol-2-ylthio)butanoic acid, reference compound] |  |  |  |  | solubility in Solution 1 [1]: 2.5 µg/mL (≈ 6.3 µM); solubility in Solution 2 [1]: 1.9 µg/mL (≈ 4.79 µM)
